According to a melting point compilation (Tetko et al.):

melting point [°C] | Structure (SMILES)
257 to 258 | O=Cc1c(-c2ccc(Cl)cc2)[nH]c2ccccc12
95 | CC1(C)C(=O)OC2=C(CCCC2)C1c1ccccc1 (stereo not drawn)
41 | CC(=O)Oc1ccc(OC(C)=O)c(C)c1
210 | Cc1ccc(C(=O)O)cc1O
36 to 38 | O=C(Cl)c1cccc2c1OCCCO2
215 to 217 | O=C(Nc1nnc(-c2ccc(Cl)cc2)o1)c1cccc(C(F)(F)F)c1
71 | Cc1cc(C)n(CN(Cc2ccccc2)Cn2nc(C)cc2C)n1
36 | CC(=O)OC(C(=O)Cl)c1ccccc1 (stereo not drawn)
172 | O=C(O)c1cnc(Cl)c(Br)c1
75 | CC1CCC(C(C)C)C(OC(=O)c2ccc(C(=O)OC3CC(C)CCC3C(C)C)cc2)C1 (stereo not drawn)
92 | Ic1cc2ccccc2c2ccccc12
55 to 61 | O=C(Cl)c1cccc2c1OCC2
37 to 39 | COc1ccc(C)cc1O
50 to 51 | Brc1cccc(N2CCOCC2)n1
66 to 67 | N#Cc1ccc(-c2ccco2)cc1
146 to 148 | OCc1cc(O)ccc1I
96 to 99 | S=C(Oc1ccccn1)Oc1ccccn1
189 | O=C1CC(c2ccc([N+](=O)[O-])cc2)=NN1c1ccccc1
117 | Cc1ncccc1N
172 | O=Nc1c(Cl)cccc1Cl
98 to 100 | CC(C)c1ccccc1OS(=O)(=O)c1ccc([N+](=O)[O-])cc1
206 to 207 | COc1ccc(NC(=S)NNC(=O)c2nn(-c3ccccc3)nc2C)cc1
124 | O=C(C(=O)C(Br)c1ccccc1)C(Br)c1ccccc1 (stereo not drawn)

melting point [°C] | Structure (SMILES)
137 to 142 | CS(=O)(=O)c1ccc(C#N)cc1
50 | N#Cc1c(F)cccc1I
200 | CC(=O)Nc1ccc([N+](=O)[O-])cn1
57 | COC(=O)Cc1ccc(O)cc1
221 to 225 | CN1C(=N)NC(=O)C1Cc1ccc(O)cc1 (stereo not drawn)
68 to 69 | Cc1nc(-c2ccc(C(F)(F)F)cc2)sc1Br
169 | O=C(O)Cc1c[nH]c2ccccc12
169 to 171 | ON(Cc1c(F)cccc1Cl)Cc1c(F)cccc1Cl
121 to 123 | Cc1ccccc1C1(C#N)Cc2ccccc2C(=O)O1 (stereo not drawn)
163 | O=[N+]([O-])c1ccc(C=NO)o1
104 to 106 | c1ccc(-c2cnc(-c3cccc4ccccc34)o2)cc1
69 | CC1=CC(O)c2ccccc21 (stereo not drawn)
137 to 139 | COC(OC)c1ccc(C#N)c(S)n1
174 | Cc1ccc(NC(=O)c2cccc3ccccc23)cc1
88 | Nc1cccc(C(F)(F)F)n1
200 | Nc1nsc2ccc([N+](=O)[O-])cc12
85 | Cc1cccc(C)c1NC(=O)c1cnc(C(C)(C)C)cn1
40.5 | CC1=CCC(C(C)(C)O)CC1 (stereo not drawn)
148 | CCOC(=O)C(CCc1ccccc1)NC1CCc2ccccc2N(CC(=O)O)C1=O (stereo not drawn)
123 to 126 | NC(=O)COc1cccc(Cl)c1
57 to 57.5 | OC(c1ccc(Br)cc1)C1CC1 (stereo not drawn)
91.4 to 93.8 | O=C(CCl)NCc1ccc2c(c1)OCO2
215 | Cc1cc(C(F)(F)F)n2nc(N)c(/N=N/c3cc(Cl)ccc3Cl)c2n1

melting point [°C] | Structure (SMILES)
105 to 106 | ON=Cc1sccc1Oc1ccccc1
64 to 65 | CC1CC(=O)c2cc(Cl)ccc2S1 (stereo not drawn)
160 | O=C(c1ccccc1)c1ccc2n1CCC2C(=O)O (stereo not drawn)
180 | CCc1c(C)[nH]c2c1C(=O)C(CN1CCOCC1)CC2 (stereo not drawn)
252 to 260 | Brc1ccc(-c2nc(-c3ccccc3)c(-c3ccccc3)[nH]2)cc1
37 | Cc1cccc(O)c1[N+](=O)[O-]
207 to 209 | Fc1ccc(-n2cc[nH]c2=S)cc1
27 | O=S(=O)(Cl)c1ccccc1Cl
83 to 84 | Brc1ccc(-c2ccco2)cc1
168 to 170 | Clc1ccc(C2C3CCc4ccccc4C3=NN2c2ccccc2)cc1 (stereo not drawn)
70 | COc1ccc(C(O)c2ccc(OC)cc2)cc1
155 | O=C(Nc1cccc([N+](=O)[O-])c1)c1ccccc1
158 | CC(C)(C)N(NC(=O)c1ccccc1)C(=O)c1cc(F)c(F)c(F)c1F
204 to 205 | COC(=O)c1cnc(SCC(=O)NC(=O)Nc2ccccc2)n1C
104 | c1ccc2c(c1)nnn2C1CCCCC1
113 | c1c2c(cc3c1CCCN3)NCCC2
193 | Cn1c(/C(C#N)=N/Nc2ccccc2Cl)nc2ccccc21
164 | COc1ccc2c(C(=S)N(C)CC(=O)O)cccc2c1C(F)(F)F
142 | CC1(C)OC(=O)C(=Cc2ccccc2F)C(=O)O1
32 | C#CC(O)COc1cccc(C(F)(F)F)c1 (stereo not drawn)
205 | O=[N+]([O-])c1cccc(-c2nnc3n2NC(c2ccccc2)S3)c1 (stereo not drawn)

Continued, molecule first:

Structure (SMILES) | melting point [°C]
c1ccc(Oc2nc(Oc3ccccc3)nc(Oc3ccccc3)n2)cc1 | 234
CS(=O)(=O)OS(C)(=O)=O | 69 to 70
O=S(=O)(Cl)C(Cl)(Cl)Cl | 140
Cc1cc(C(N)=O)no1 | 171 to 173
Cc1nc(C)c(C)nc1C | 85
CC(C)(CO)NCC(O)CS(=O)(=O)O (stereo not drawn) | 215 to 225
N#Cc1ccc(CCl)cc1 | 79
CC(=O)Nc1ccc(C=Cc2ccc(NC(C)=O)cc2)cc1 | 322
CC(=O)c1cc(Br)cc([N+](=O)[O-])c1O | 131
Oc1ccc2c3c1OC1C(O)C=CC4C(C2)NCCC341 (stereo not drawn) | 273
Cc1cc(CC(=O)O)n(C)c1C(=O)c1ccc(Cl)cc1 | 178
NNc1c(Cl)cc(Cl)cc1C(F)(F)F | 40 to 43
O=CCCCC=O | -6
Cc1cc(C(C#N)c2ccc(Cl)cc2)c(Cl)cc1NC(=O)c1cc(I)cc(I)c1O (stereo not drawn) | 218
CC1(C)CON(Cc2ccccc2Cl)C1=O | 33.9
Nc1nc(S)nc(S)n1 | 300
C=CCNC(N)=O | 85
CC=CC(C)(C)C | -115
CCCCCOc1ccc(-c2ccc(C#N)cc2)cc1 | 48
COc1ccc(C(=O)OCCOc2ccc(C=CC(=O)c3ccccc3)cc2)cc1 | 113
CS(=O)CCC(N)C(=O)O (racemic) | 232 to 234
CC(=O)O[Si](C)(C)OC(C)=O | -12.5

Structure (SMILES) | melting point [°C]
CN(C)CCN | -70
CCNC(=O)NC(=O)C(C#N)=NOC | 161
O=C(O)CCCCCCCc1ccccc1 | 28
NC(=O)C1=CNCCC1C(F)(F)F (stereo not drawn) | 184 to 187
Cc1ccc2c(c1)C(=O)c1ccc(C)cc1C2=O | 240
Clc1ccc2c(c1)C(c1ccccc1)=NCc1nncn1-2 | 228
OCCSCCCCCCCCCCSCCO | 69.5
CC12C=CCC1C1CCC3CC(O)CCC3(C)C1CC2 (stereo not drawn) | 143
CC(C)(C)OC(=O)N1CCC[C@@H]1C(=O)O | 133 to 135
CC(C)(C)OC(=O)NC(Cc1ccncc1)C(=O)O (stereo not drawn) | 225 to 229
O=C(Nc1ccc([N+](=O)[O-])cc1Cl)C1(F)C(F)(F)C(F)(F)C(F)(F)C(F)(F)C1(F)F | 93
CC(C)[C@H](NC(=O)OCC1c2ccccc2-c2ccccc21)C(=O)O | 143 to 147
CCCCCCCCCCC(=O)CC | 31
C1=CCCCCCCCCCC1 | -9
CC(CCc1ccc(CCC(C)OC(=O)Nc2ccccc2)cc1)OC(=O)Nc1ccccc1 (stereo not drawn) | 165
O=[N+]([O-])c1cc([N+](=O)[O-])c(C(/C(=N/Nc2ccccc2)c2ccccc2)c2ccccc2)cc1Cl (stereo not drawn) | 195 to 196
CSc1nc(N)cc(Cl)n1 | 130 to 134
Cc1[nH]c(C)c(C)c1C | 111
CCS(=O)(=O)O | -17
OCC(CO)(CCl)CCl | 83
CCOC(=O)C1CSCCN1 (stereo not drawn) | 118 to 121
CCCCCCCCCCCCCCCCC(C)CC (stereo not drawn) | 8

Structure (SMILES) | melting point [°C]
CC(=O)OCC#CCOC(C)=O | 28
O=Cc1ccsc1 | -30
O=C1CCCCCCCCCCCCCCCO1 | 33.5
Cc1c(C)c(Br)c(Br)c(Br)c1Br | 262
Cc1ccc(C(=O)/C=C/c2ccc(-c3ccc(Cl)cc3)o2)o1 | 171
CC(CC(C(N)=O)(c1ccccc1)c1ccccc1)N(C)C (stereo not drawn) | 137
CCOC(=O)C(Br)CCC(Br)C(=O)OCC (stereo not drawn) | 66 to 68
CC(C)(C)c1cc(C(=S)Nc2ccccc2)cc(C(C)(C)C)c1O | 227 to 228
C=C1C[C@H]1C(O)C(=O)OC (stereo partly drawn) | 41.5
COc1cc(C(=O)O)cc(Cl)c1O | 245
CCOc1cc(OCC)cc(OCC)c1 | 43.5
O=C(N(Cc1ccccc1)Cc1ccccc1)C(F)(F)C(F)(F)C(F)(F)C(F)(F)C(F)(F)C(F)(F)C(F)(F)C(F)(F)F | 49
Cn1ncc2c(Cl)ncnc21 | 97 to 100
C[N+](C)(C)CC(O)CC(=O)[O-] (stereo not drawn) | 208 to 212
N#CC1CC2C=CC1C2 (stereo not drawn) | 13
NC(=NO)c1cc(C(F)(F)F)cc(C(F)(F)F)c1 | 131 to 133
NC(Cc1cc(I)c(Oc2ccc(O)c(I)c2)c(I)c1)C(=O)O (stereo not drawn) | 236
COC(=O)C(C#N)=C(SCc1ccccc1)SCc1ccccc1 | 104
COC(=O)c1cscc1Sc1ccc(Cl)cc1 | 77 to 79
Nc1ccc(/C=C\c2ccc(N)cc2)cc1 | 121
COC(OC)(OC)OC | -5
CCCCCCCC(O)CC (stereo not drawn) | -5
